# Measured values from patent publication US20240150293A1, “SPIROCYCLOHEXANE DERIVATIVES, PHARMACEUTICAL COMPOSITIONS CONTAINING THEM AND THEIR USES AS ANTI-APOPTOTIC INHIBITORS” (LES LABORATOIRES SERVIER, priority 2021, published 2024).
# Read-outs that look alike come from different tables or passages of the source.
# Assays:
# [1] = molecular target: Cy5-labelled Mcl1 (amino acids 171-321) C286S protein (UniProtKB Q07820) (Homo sapiens (Human), UniProt Q07820, C286S); test: Inhibition of Mcl-1 by the fluorescence quenching assay (Example A, Method B); type: binding
# Method in brief: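 Cy5-labelled Mcl1 171-321 C286S (1 nM) quenched by TQ5WS-labelled PUMA peptide (10, 20 or 400 nM); displacement raises fluorescence (Ex 620/Em 680 nm). Buffer 10 mM HEPES, 150 mM NaCl, 0.05% Tween 20, pH 7.4, 5% DMSO; 2 h at room temperature, 11-point curves, IC50 converted to Ki (cKi/eKi).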
# NCI-H929 cell lines = test: In vitro cytotoxicity, CellTiter-Glo (CTG) assay (Example B, Method B); type: cell-based; conditions: NCI-H929 cells, 48 h incubation, read-out: C50
# Method in brief: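 NCI-H929 cells exposed to an 11-point compound series from 10 mM DMSO stocks (top final 30 μM) for 48 h at 37° C., 5% CO2. Viability measured as ATP by CellTiter-Glo luminescence; C50 is the concentration giving 50% cellular viability.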
# Chain of Cy5-labelled Mcl1 (amino acids 171-321) C286S protein (Q07820 171-321 C286S): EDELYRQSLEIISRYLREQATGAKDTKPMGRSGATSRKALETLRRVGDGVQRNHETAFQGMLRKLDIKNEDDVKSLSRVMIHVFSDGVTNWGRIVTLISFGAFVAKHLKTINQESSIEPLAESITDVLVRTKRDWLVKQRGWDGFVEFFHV
smiles,measurement,setting,value
"[2H]c1c([2H])c(Cl)c([2H])c(N[C@]2(C(=O)O)CC[C@]3(CC2)c2cc4c(cc2C[C@@H]3C[C@@H](C)COc2ccnc3c2[C@H](C)CCC3)OCO4)c1[2H] [Example 844, (1r,4S,6′S)-4-{[3-chloro(2H4)phenyl]amino}-6′-[(2R)-2-methyl-3-{[(5R)-5-methyl-5,6,7,8-tetrahydroquinolin-4-yl]oxy}propyl]-6′,7′-dihydro-2′H-spiro[cyclohexane-1,5′-indeno[5,6-d][1,3]dioxole]-4-carboxylic acid]",Ki,[1],0.0106 nM
same,IC50,"NCI-H929 cell lines; Homo sapiens, NCI-H929, 48 h",29.2 nM
"CC1Oc2cc3c(cc2O1)[C@]1(CC[C@@](Nc2cccc(Cl)c2)(C(=O)O)CC1)[C@@H](C[C@@H](C)COc1ccnc2c1[C@H](C)CCC2)C3 (single isomer, unassigned) [Example 966]",Ki,[1],0.0267 nM
same,IC50,NCI-H929 cell lines,48.3 nM
"CC1COc2cc3c(cc2OC1)[C@]1(CC[C@@](Nc2cccc(Cl)c2)(C(=O)O)CC1)[C@@H](C[C@@H](C)COc1ccnc2c1[C@H](C)CCC2)C3 (single isomer, unassigned) [Example 982]",Ki,[1],0.0264 nM
same,IC50,NCI-H929 cell lines,157 nM
"CC(=O)c1cc(C)c2c(c1)[C@]1(CC[C@@](Nc3cccc(Cl)c3)(C(=O)O)CC1)C(C[C@@H](C)COc1ccnc3c1[C@H](C)CCC3)C2 (single isomer, unassigned) [Example 757]",Ki,[1],1.9 nM
same,IC50,NCI-H929 cell lines,200 nM
"CC[C@H]1COc2cc3c(cc2O1)C[C@H](C[C@@H](C)COc1ccnc2c1[C@H](C)CCC2)[C@]31CC[C@](Nc2cccc(Cl)c2)(C(=O)O)CC1 [Example 978, (1r,2′S,4S,7′S)-4-(3-chloroanilino)-2′-ethyl-7′-[(2R)-2-methyl-3-{[(5R)-5-methyl-5,6,7,8-tetrahydroquinolin-4-yl]oxy}propyl]-2′,3′,7′,8′-tetrahydrospiro[cyclohexane-1,6′-indeno[5,6-b][1,4]dioxine]-4-carboxylic acid]",Ki,[1],0.0831 nM
same,IC50,"NCI-H929 cell lines; Homo sapiens, NCI-H929, 48 h",164 nM
"C[C@@H](COc1ccnc2c1[C@H](C)CCC2)C[C@H]1Cc2cc3c(cc2[C@]12CC[C@@](Nc1cccc(Cl)c1)(C(=O)O)CC2)O[C@@H](C)CO3 [Example 972, (1r,3'S,4S,7′S)-4-(3-chloroanilino)-3′-methyl-7′-[(2R)-2-methyl-3-{[(5R)-5-methyl-5,6,7,8-tetrahydroquinolin-4-yl]oxy}propyl]-2′,3′,7′,8′-tetrahydrospiro[cyclohexane-1,6′-indeno[5,6-b][1,4]dioxine]-4-carboxylic acid]",Ki,[1],0.00893 nM
same,IC50,"NCI-H929 cell lines; Homo sapiens, NCI-H929, 48 h",31 nM
"Cc1ccc2c(c1)CN(C[C@@H](C)COc1ccnc3c1[C@H](C)CCC3)[C@]21CC[C@](Nc2ccc(F)c(Cl)c2)(C(=O)O)CC1 [Example 54, (1s,4S)-4-(3-chloro-4-fluoroanilino)-5′-methyl-2′-[(2R)-2-methyl-3-{[(5R)-5-methyl-5,6,7,8-tetrahydroquinolin-4-yl]oxy}propyl]-2′,3′-dihydrospiro[cyclohexane-1,1′-isoindole]-4-carboxylic acid]",Ki,[1]; Ki determined from IC50,0.177 nM
same,IC50,"NCI-H929 cell lines; Homo sapiens, NCI-H929, 48 h",177 nM
"C[C@@H](COc1c(Cl)cnc2c1[C@H](C)CCC2)C[C@H]1Cc2cc3c(cc2[C@]12CC[C@@](Nc1ccc(F)c(Cl)c1)(C(=O)O)CC2)OCO3 [Example 886, (1r,4S,6′S)-4-(3-chloro-4-fluoroanilino)-6′-[(2R)-3-{[(5R)-3-chloro-5-methyl-5,6,7,8-tetrahydroquinolin-4-yl]oxy}-2-methylpropyl]-6′,7′-dihydro-2′H-spiro[cyclohexane-1,5′-indeno[5,6-d][1,3]dioxole]-4-carboxylic acid]",Ki,[1],0.145 nM
same,IC50,"NCI-H929 cell lines; Homo sapiens, NCI-H929, 48 h",381 nM
"C[C@@H](COc1ccnc2c1[C@H](C)CCC2)C[C@H]1Cc2cc3c(cc2[C@]12CC[C@@](Nc1cccc(Cl)c1)(C(=O)O)CC2)CCC3 [Example 852, (1r,2′S,4S)-4-(3-chloroanilino)-2′-[(2R)-2-methyl-3-{[(5R)-5-methyl-5,6,7,8-tetrahydroquinolin-4-yl]oxy}propyl]-3′,5′,6′,7′-tetrahydro-2′H-spiro[cyclohexane-1,1′-[s]indacene]-4-carboxylic acid]",Ki,[1],0.0896 nM
same,IC50,"NCI-H929 cell lines; Homo sapiens, NCI-H929, 48 h",235 nM
"COc1cc2c(cc1Cl)CN(C[C@@H](C)COc1ccnc3c1[C@H](C)CCC3)[C@]21CC[C@](Nc2cccc(Cl)c2)(C(=O)O)CC1 [Example 46, (1s,4S)-5′-chloro-4-(3-chloroanilino)-6′-methoxy-2′-[(2R)-2-methyl-3-{[(5R)-5-methyl-5,6,7,8-tetrahydroquinolin-4-yl]oxy}propyl]-2′,3′-dihydrospiro[cyclohexane-1,1′-isoindole]-4-carboxylic acid]",Ki,[1]; Ki determined from IC50,0.255 nM
same,IC50,"NCI-H929 cell lines; Homo sapiens, NCI-H929, 48 h",262 nM
"Cc1ccc2c(c1)CN(C[C@@H](C)COc1ccnc3c1[C@H](C)CCC3)[C@]21CC[C@](Nc2cccc(Cl)c2C)(C(=O)O)CC1 [Example 53, (1s,4S)-4-(3-chloro-2-methylanilino)-5′-methyl-2′-[(2R)-2-methyl-3-{[(5R)-5-methyl-5,6,7,8-tetrahydroquinolin-4-yl]oxy}propyl]-2′,3′-dihydrospiro[cyclohexane-1,1′-isoindole]-4-carboxylic acid]",Ki,[1]; Ki determined from IC50,1.5 nM
same,IC50,"NCI-H929 cell lines; Homo sapiens, NCI-H929, 48 h",451 nM
"C[C@@H](COc1ccnc2c1[C@H](C)CCC2)C[C@H]1Cc2ccc(COC3CCCO3)cc2[C@]12CC[C@@](Nc1cccc(Cl)c1)(C(=O)O)CC2 (stereo partly drawn) [Example 872, (1r,2′S,4S)-4-(3-chloroanilino)-2′-[(2R)-2-methyl-3-{[(5R)-5-methyl-5,6,7,8-tetrahydroquinolin-4-yl]oxy}propyl]-6′-{[(oxolan-2-yl)oxy]methyl}-2′,3′-dihydrospiro[cyclohexane-1,1′-indene]-4-carboxylic acid]",Ki,[1],0.0505 nM
same,IC50,"NCI-H929 cell lines; Homo sapiens, NCI-H929, 48 h",52.9 nM
"C[C@@H](COc1ccnc2c1[C@H](C)CCC2)C[C@H]1Cc2cc3c(cc2[C@]12CC[C@@](Nc1cccc(Cl)c1)(C(=O)O)CC2)OCC(F)(F)CO3 [Example 996, (1r,4S,8′S)-4-(3-chloroanilino)-3′,3′-difluoro-8′-[(2R)-2-methyl-3-{[(5R)-5-methyl-5,6,7,8-tetrahydroquinolin-4-yl]oxy}propyl]-3′,4′,8′,9′-tetrahydro-2′H-spiro[cyclohexane-1,7′-indeno[5,6-b][1,4]dioxepine]-4-carboxylic acid]",Ki,[1],0.028 nM
same,IC50,"NCI-H929 cell lines; Homo sapiens, NCI-H929, 48 h",84.5 nM
"COCCOCCOC(=O)[C@]1(Nc2cccc(Cl)c2)CC[C@@]2(CC1)c1cc3c(cc1C[C@@H]2C[C@@H](C)COc1ccnc2c1[C@H](C)CCC2)OCO3 [Example 933, 2-(2-methoxyethoxy)ethyl (1r,4S,6′S)-4-(3-chloroanilino)-6′-[(2R)-2-methyl-3-{[(5R)-5-methyl-5,6,7,8-tetrahydroquinolin-4-yl]oxy}propyl]-6′,7′-dihydro-2′H-spiro[cyclohexane-1,5′-indeno[5,6-d][1,3]dioxole]-4-carboxylate]",Ki,[1],303 nM
same,IC50,"NCI-H929 cell lines; Homo sapiens, NCI-H929, 48 h",18900 nM
"CCOc1ccc2c(c1)[C@]1(CC[C@@](Nc3ccc(F)c(Cl)c3)(C(=O)O)CC1)[C@@H](C[C@@H](C)COc1ccnc3c1[C@H](C)CCC3)C2 [Example 785, (1r,2′S,4S)-4-(3-chloro-4-fluoroanilino)-6′-ethoxy-2′-[(2R)-2-methyl-3-{[(5R)-5-methyl-5,6,7,8-tetrahydroquinolin-4-yl]oxy}propyl]-2′,3′-dihydrospiro[cyclohexane-1,1′-indene]-4-carboxylic acid]",Ki,[1],0.122 nM
same,IC50,"NCI-H929 cell lines; Homo sapiens, NCI-H929, 48 h",61 nM
"CC(C)OC(=O)OC(C)OC(=O)[C@]1(Nc2cccc(Cl)c2)CC[C@@]2(CC1)c1cc3c(cc1C[C@@H]2C[C@@H](C)COc1ccnc2c1[C@H](C)CCC2)OCO3 (stereo partly drawn) [Example 944, 1-({[(propan-2-yl)oxy]carbonyl}oxy)ethyl (1r,4S,6′S)-4-(3-chloroanilino)-6′-[(2R)-2-methyl-3-{[(5R)-5-methyl-5,6,7,8-tetrahydroquinolin-4-yl]oxy}propyl]-6′,7′-dihydro-2′H-spiro[cyclohexane-1,5′-indeno[5,6-d][1,3]dioxole]-4-carboxylate]",inhibition at 1 µM,"[1]; @ 1 μM, read-out: Mcl-1 inhibition, % at a single concentration",13.9%
same,IC50,"NCI-H929 cell lines; Homo sapiens, NCI-H929, 48 h",2130 nM
"CC(C)C1COc2cc3c(cc2OC1)[C@]1(CC[C@@](Nc2cccc(Cl)c2)(C(=O)O)CC1)[C@@H](C[C@@H](C)COc1ccnc2c1[C@H](C)CCC2)C3 (single isomer, unassigned) [Example 993]",Ki,[1],0.0666 nM
same,IC50,NCI-H929 cell lines,143 nM
"COCC(=O)OC(C)OC(=O)[C@]1(Nc2cccc(Cl)c2)CC[C@@]2(CC1)c1cc3c(cc1C[C@@H]2C[C@@H](C)COc1ccnc2c1[C@H](C)CCC2)OCO3 (stereo partly drawn) [Example 941, 1-[(methoxyacetyl)oxy]ethyl (1r,4S,6′S)-4-(3-chloroanilino)-6′-[(2R)-2-methyl-3-{[(5R)-5-methyl-5,6,7,8-tetrahydroquinolin-4-yl]oxy}propyl]-6′,7′-dihydro-2′H-spiro[cyclohexane-1,5′-indeno[5,6-d][1,3]dioxole]-4-carboxylate]",Ki,[1],3.94 nM
same,IC50,"NCI-H929 cell lines; Homo sapiens, NCI-H929, 48 h",46.2 nM
"C[C@@H](COc1ccnc2c1[C@H](C)CCC2)C[C@H]1Cc2ccccc2[C@]12CC[C@@](Nc1cccc(Cl)c1)(C(=O)O)CC2 [Example 653, (1r,2′S,4S)-4-(3-chloroanilino)-2′-[(2R)-2-methyl-3-{[(5R)-5-methyl-5,6,7,8-tetrahydroquinolin-4-yl]oxy}propyl]-2′,3′-dihydrospiro[cyclohexane-1,1′-indene]-4-carboxylic acid]",Ki,[1],0.282 nM
same,IC50,"NCI-H929 cell lines; Homo sapiens, NCI-H929, 48 h",113 nM
